Data published in article PMC8652888, “Angiogenesis, Anti-Tumor, and Anti-Metastatic Activity of Novel α-Substituted Hetero-Aromatic Chalcone Hybrids as Inhibitors of Microtubule Polymerization” (Frontiers in Chemistry, 2021).
Values joined by “and” are separate entries in the source; they are usually repeats but may differ in a detail not shown here. Identical values can stand only once. Like-named read-outs stand apart in the source and are kept apart here.

Tests used:
U937 = test: Antiproliferative activity, CCK-8 assay; assay type: cell-based
Summary of the method: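 U937 cells in log phase seeded at 8,000/well with compound-containing medium and incubated 72 h at 37 °C, 5% CO2. Proliferation read by CCK-8 dye after a further 3–4 h incubation, against blank-medium wells.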

MCF-7 = test: Antiproliferative activity, SRB assay; assay type: cell-based, human;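 further: proliferation of MCF7 cells quantified by sulforhodamine B staining, with optical density read at 560 nm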
Method: The synthesized compounds were first evaluated for their cytotoxic effect on MCF-7 (human breast adenocarcinoma), U937 (histiocytic lymphoma cancer), HepG2 (human liver cancer) cells, and MGC-803 (human gastric cancer) using the SRB and CCK-8 assay.
The primary tumor cells were purchased from a professional biomedical company. First, the primary tumor cells were incubated in a cell culture incubator at 37°C and 5% CO2. After the cell fusion reached 85%–95%, subculture was performed, and the tumor cells obtained at this time were used for subsequent related experiments. The CCK-8 method was used to inhibit the proliferation of U937 tumor cells, and the SRB method was used to inhibit the proliferation of MCF7 and HepG2 tumor cells.
Cells were distributed into 96-well plates with a density of 3 × 10^3–4 × 10^3 cells per well and incubated for 24 h in a 5% CO2 incubator at 37°C, followed by treatment with study compounds at different concentrations at 37°C for 72 h. One hundred microliters of 10% (w/v) trichloroacetic acid was added to each well, fixed at 4°C for 30 min, and dried at 65°C. Then 100 μl of 0.4% SRB was added to each well and stained on a shaker for 20 min at room temperature. The excess dye solution was washed with newly prepared 1% glacial acetic acid and dried at 65°C. One hundred fifty microliters of 10 mM unbuffered Trisbase was added to each well of the plate and shaken for 5 min to dissolve the dye. The microplate reader measured the optical density (OD) at a wavelength of 560 nm.

HepG2 = test: Antiproliferative activity, SRB assay; assay type: cell-based, human
Summary of the method: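 Cells seeded at 3 × 10^3–4 × 10^3 per well, grown 24 h, then exposed to compounds at various concentrations for 72 h at 37 °C. TCA-fixed cells stained with 0.4% SRB; bound dye dissolved in 10 mM Tris base and OD read at 560 nm.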

[1] = test system: taxol-resistant MCF7 cells (MCF7/Tax); test: Growth inhibition of taxol-resistant cells; assay type: cell-based, human
MCF-7 cells = test: Apoptosis analysis, Annexin-V FITC/PI flow cytometry; assay type: cell-based, human; conditions: for Late-apoptosis (Q2 of Annexin/PI plot), single runs / Pro-apoptosis (Q3 of Annexin/PI plot), single runs / percentage of apoptotic cells (early and late apoptosis): 48 h
Method: To test whether compound 7m induced reduction in cell viability was responsible for the induction of apoptosis, MCF-7 cells were stained with Annexin-V FITC/PI staining, and the number of apoptotic cells was estimated by flow cytometry.
The MCF-7 cells in 12-well plates (8 × 10^4 cells/well) were cultured for 24 h at 37°C in 5% CO2 and then incubated with 7m at concentrations of 100, 200, 400 nM, or vehicle to induce cell apoptosis for 48 h. Then the cells floating in the supernatant were combined with the adherent fraction and washed with PBS three times. The cells were incubated with Annexin V-FITC and PI for 15 min at 37°C in the dark. Apoptosis was quantified using a flow cytometer (Becton, Dickinson and Company, USA).

HUVECs [2] = test: Tube formation assay; assay type: cell-based, human; conditions: 1, 5, 25 μM, 6–8 h
Method: HUVECs (human umbilical vein endothelial cells) grown on Matrigel were commonly used as a tube formation model and also a widely studied human endothelial cell type in angiogenesis, for their ability to alter their shape to resemble capillaries ([Aranda and Owen, 2009]). […] We therefore examined the effects of 7m on HUVEC tube formation to evaluate its potential effect on angiogenesis.
The HUVECs were seeded in 96-well plates and cultured for 24 h, and then incubated with 1, 5, and 25 μM 7m. The EC Matrigel matrix was thawed overnight at 4°C. The HUVECs, suspended in F12K, were seeded in a 96-well culture plate at a cell density of 10,000 cells/well after 45 min of Matrigel polymerization at 37°C. Then they were treated with different concentrations of 7m or carrier at 37°C for 6–8 h. Then the morphological changes of the formed cells and tubes under an inverted microscope were observed, and pictures were taken.

HUVECs [3] = test: Transwell cell invasion experiment; assay type: cell-based, human; conditions: 1, 5, 25 μΜ
Method: A wound healing assay was, thus, performed to evaluate the capacity of 7m to inhibit cell motility. […] Then the invasion inhibitory activities of 7m were further detected using Transwell assay with HUVECs cells treated with 0, 1, 5, and 25 μΜ of 7m. In this assay, […] were seeded into upper chambers which were pre-coated with Matrigel matrix in order to evaluate the cellular invasion.
The upper chamber of the Transwell chamber was filled with cells resuspended in serum-free medium, 6 × 10^4 cells per well, 100 μl per well, and the lower chamber was added with 10% FBS-containing medium prepared with different concentrations of 7m. The cells were allowed to migrate for 48 h at 37°C in an atmosphere of 5% CO2. Then the migration of cells to the underside of the filter was determined by crystal violet staining.

3-(benzofuran-6-yl)-2-methyl-1-(3,4,5-trimethoxyphenyl)prop-2-en-1-one [Compound 7m]
IC50 (U937; 72 h, triplicate, mean ± SD, read-out: IC50 ± SD, U937): 82 ± 2 nM | IC50 (U937; supplement raw data of table 2, read-out: IC50(U937)): 81.6 nM | IC50 (MCF-7; 72 h, triplicate, mean ± SD, read-out: IC50 ± SD, MCF-7): 183 ± 32 nM | IC50 (MCF-7; Table 3, triplicate, read-out: IC50 ± SD, MCF7): 183 ± 32 nM | IC50 (MCF-7; three single determinations, read-out: MCF-7 (raw data of table 3, IC50)): 146 nM and 223 nM and 180 nM | IC50 (HepG2; 72 h, triplicate, mean ± SD, read-out: IC50 ± SD, HepG2): 70 ± 1 nM | IC50 (HepG2; supplement raw data of table 2, read-out: IC50(Hepg2)): 70.5 nM | Resistant fold ([1]; (IC50 MCF7/Tax)/(IC50 MCF7)): 1.2 | IC50 ([1]; three single determinations, read-out: MCF-7/Taxol (raw data of table 3, IC50)): 242 nM and 181 nM and 216 nM | IC50 ([1]; triplicate, read-out: IC50 ± SD, MCF7/Tax): 213 ± 26 nM | Late-apoptosis AVERAGE (MCF-7 cells; 100nM): 37.3 | Pro-apoptosis AVERAGE (MCF-7 cells; 100nM): 6.425 | Late-apoptosis (Q2 of Annexin/PI plot), single runs (MCF-7 cells; 100nM): 36 and 38.6 | Pro-apoptosis (Q3 of Annexin/PI plot), single runs (MCF-7 cells; 100nM): 7.59 and 5.26 | percentage of apoptotic cells (early and late apoptosis) (MCF-7 cells; 100nM): 44% | Late-apoptosis AVERAGE (MCF-7 cells; 200nM): 48.8 | Pro-apoptosis AVERAGE (MCF-7 cells; 200nM): 3.01 | Late-apoptosis (Q2 of Annexin/PI plot), single runs (MCF-7 cells; 200nM): 49.3 and 48.3 | Pro-apoptosis (Q3 of Annexin/PI plot), single runs (MCF-7 cells; 200nM): 3.29 and 2.73 | percentage of apoptotic cells (early and late apoptosis) (MCF-7 cells; 200nM): 53% | Late-apoptosis AVERAGE (MCF-7 cells; 400nM): 52.3 | Pro-apoptosis AVERAGE (MCF-7 cells; 400nM): 4.22 | Late-apoptosis (Q2 of Annexin/PI plot), single runs (MCF-7 cells; 400nM): 52.8 and 51.8 | Pro-apoptosis (Q3 of Annexin/PI plot), single runs (MCF-7 cells; 400nM): 4.66 and 3.78 | percentage of apoptotic cells (early and late apoptosis) (MCF-7 cells; 400nM): 57% | width and length of tubule-like network formation (HUVECs [2]): reduced in a concentration-dependent manner | invasion ability of cells (HUVECs [3]): invasion ability of cells gradually weakened
